Measurements from patent publication EP1007530B1, “6-O-SUBSTITUTED ERYTHROMYCIN COMPOUNDS AND METHOD FOR MAKING SAME” (ABBOTT LABORATORIES, priority 1996, dated 1997).

How the values were obtained:
Experiment in all cases: In vitro assay of antibacterial activity (agar dilution MIC)
Type in all cases: cell-based
[1] = test system: Actinetobacter calcoaceticus CMX 669; conditions: BHI agar, 35-37 °C, 20 to 24 hours, unit assumed
Description: (§1) Representative compounds of the present invention were assayed in vitro for antibacterial activity as follows: Twelve petri dishes containing successive aqueous dilutions of the test compound mixed with 10 mL of sterilized Brain Heart Infusion (BHI) agar (Difco 0418-01-5) were prepared. Each plate was inoculated with 1:100 (or 1:10 for slow-growing strains, such as Micrococcus and Streptococcus) dilutions of up to 32 different microorganisms, using a Steers replicator block. The inoculated plates were incubated at 35-37 °C for 20 to 24 hours, In addition, a control plate, using BHI agar containing no test compound, was prepared and incubated at the beginning and end of each test.
(§2) An additional plate containing a compound having known susceptibility patterns for the organisms being tested and belonging to the same antibiotic class as the test compound was also prepared and incubated as a further control, as well as to provide test-to-test comparability.
(§3) After incubation, each plate was visually inspected. The minimum inhibitory concentration (MIC) was defined as the lowest concentration of drug yielding no growth, a slight haze, or sparsely isolated colonies on the inoculum spot as compared to the growth control. […]

[2] = test system: Staphylococcus aureus A5177; conditions: BHI agar, 35-37 °C, 20 to 24 hours, unit assumed
Description: as §1, §2, §3

[3] = test system: Mycobacterium smegmatis ATCC 114; conditions: BHI agar, 35-37 °C, 20 to 24 hours, unit assumed
Description: as §1
as §2, with “comparability. Erythromycin A was used for this purpose.” for “comparability.”
as §3

[4] = test system: Pseudomonas aeruginosa K799/61; conditions: BHI agar, 35-37 °C, 20 to 24 hours, unit assumed
Description: as §1
as §2, with “comparability. Erythromycin A was used for this purpose.” for “comparability.”
as §3

Escherichia coli DC-2 = conditions: BHI agar, 35-37 °C, 20 to 24 hours, unit assumed
Description: as §1
as §2, with “comparability. Erythromycin A was used for this purpose.” for “comparability.”
as §3

[5] = test system: Staphylococcus aureus CMX 642A; conditions: BHI agar, 35-37 °C, 20 to 24 hours, unit assumed
Description: as §1
as §2, with “comparability. Erythromycin A was used for this purpose.” for “comparability.”
as §3

[6] = test system: Streptococcus pyogenes EES61; conditions: BHI agar, 35-37 °C, 20 to 24 hours, unit assumed
Description: as §1
as §2, with “comparability. Erythromycin A was used for this purpose.” for “comparability.”
as §3

[7] = test system: Pseudomonas aeruginosa DPHD-2862; conditions: BHI agar, 35-37 °C, 20 to 24 hours, unit assumed
Description: as §1
as §2, with “comparability. Erythromycin A was used for this purpose.” for “comparability.”
as §3

[8] = test system: Staphylococcus aureus A-5278; conditions: BHI agar, 35-37 °C, 20 to 24 hours, unit assumed
Description: as §1
as §2, with “comparability. Erythromycin A was used for this purpose.” for “comparability.”
as §3

Escherichia coli SS = conditions: BHI agar, 35-37 °C, 20 to 24 hours, unit assumed
Description: as §1
as §2, with “comparability. Erythromycin A was used for this purpose.” for “comparability.”
as §3

[9] = test system: Streptococcus agalactiae CMX 508; conditions: BHI agar, 35-37 °C, 20 to 24 hours, unit assumed
Description: as §1
as §2, with “comparability. Erythromycin A was used for this purpose.” for “comparability.”
as §3

[10] = test system: Streptococcus pyogenes PIU 2548; conditions: BHI agar, 35-37 °C, 20 to 24 hours, unit assumed
Description: as §1
as §2, with “comparability. Erythromycin A was used for this purpose.” for “comparability.”
as §3

[11] = test system: Providencia struartii CMX 640; conditions: BHI agar, 35-37 °C, 20 to 24 hours, unit assumed
Description: as §1
as §2, with “comparability. Erythromycin A was used for this purpose.” for “comparability.”
as §3

[12] = test system: Staphylococcus aureus NCTC10649M; conditions: BHI agar, 35-37 °C, 20 to 24 hours, unit assumed
Description: as §1
as §2, with “comparability. Erythromycin A was used for this purpose.” for “comparability.”
as §3

[13] = test system: Staphylococcus aureus CMX 553; conditions: BHI agar, 35-37 °C, 20 to 24 hours, unit assumed
Description: as §1
as §2, with “comparability. Erythromycin A was used for this purpose.” for “comparability.”
as §3

[14] = test system: Pseudomonas aeruginosa BMH10; conditions: BHI agar, 35-37 °C, 20 to 24 hours, in µg/mL (unit assumed)
Description: as §1
as §2, with “comparability. Erythromycin A was used for this purpose.” for “comparability.”
as §3

[15] = test system: Micrococcus luteus ATCC 4698; conditions: BHI agar, 35-37 °C, 20 to 24 hours, unit assumed
Description: as §1
as §2, with “comparability. Erythromycin A was used for this purpose.” for “comparability.”
as §3

Escherichia coli JUHL = conditions: BHI agar, 35-37 °C, 20 to 24 hours, in µg/mL (unit assumed)
Description: as §1
as §2, with “comparability. Erythromycin A was used for this purpose.” for “comparability.”
as §3

Escherichia coli H560 = conditions: BHI agar, 35-37 °C, 20 to 24 hours, unit assumed
Description: as §1
as §2, with “comparability. Erythromycin A was used for this purpose.” for “comparability.”
as §3

[16] = test system: Klebsiella pneumoniae ATCC 8045; conditions: BHI agar, 35-37 °C, 20 to 24 hours, unit assumed
Description: as §1
as §2, with “comparability. Erythromycin A was used for this purpose.” for “comparability.”
as §3

[17] = test system: Staphylococcus aureus ATCC 6538P; conditions: BHI agar, 35-37 °C, 20 to 24 hours, unit assumed
Description: as §1
as §2, with “comparability. Erythromycin A was used for this purpose.” for “comparability.”
as §3

[18] = test system: Micrococcus luteus ATCC 9341; conditions: BHI agar, 35-37 °C, 20 to 24 hours, unit assumed
Description: as §1
as §2, with “comparability. Erythromycin A was used for this purpose.” for “comparability.”
as §3

[19] = test system: Pseudomonas aeruginosa DPHD-5263; conditions: BHI agar, 35-37 °C, 20 to 24 hours, in µg/mL (unit assumed)
Description: as §1
as §2, with “comparability. Erythromycin A was used for this purpose.” for “comparability.”
as §3

[20] = test system: Pseudomonas aeruginosa 5007; conditions: BHI agar, 35-37 °C, 20 to 24 hours, unit assumed
Description: as §1
as §2, with “comparability. Erythromycin A was used for this purpose.” for “comparability.”
as §3

[21] = test system: Staphylococcus epidermidis 3519; conditions: BHI agar, 35-37 °C, 20 to 24 hours, unit assumed
Description: as §1
as §2, with “comparability. Erythromycin A was used for this purpose.” for “comparability.”
as §3

[22] = test system: Streptococcus pyogenes 930; conditions: BHI agar, 35-37 °C, 20 to 24 hours, unit assumed
Description: as §1
as §2, with “comparability. Erythromycin A was used for this purpose.” for “comparability.”
as §3

Pseudomonas capacia 2961 = conditions: BHI agar, 35-37 °C, 20 to 24 hours, in µg/mL (unit assumed)
Description: as §1
as §2, with “comparability. Erythromycin A was used for this purpose.” for “comparability.”
as §3

Escherichia coli KNK 437 = conditions: BHI agar, 35-37 °C, 20 to 24 hours, unit assumed
Description: as §1
as §2, with “comparability. Erythromycin A was used for this purpose.” for “comparability.”
as §3

[23] = test system: Enterococcus faecium ATCC 8043; conditions: BHI agar, 35-37 °C, 20 to 24 hours, unit assumed
Description: as §1
as §2, with “comparability. Erythromycin A was used for this purpose.” for “comparability.”
as §3

[24] = test system: Pseudomonas aeruginosa K799/WT; conditions: BHI agar, 35-37 °C, 20 to 24 hours, unit assumed
Description: as §1
as §2, with “comparability. Erythromycin A was used for this purpose.” for “comparability.”
as §3

Candida albicans CCH 442 = conditions: BHI agar, 35-37 °C, 20 to 24 hours, unit assumed
Description: as §1
as §2, with “comparability. Erythromycin A was used for this purpose.” for “comparability.”
as §3

[25] = test system: Staphylococcus aureus 1775; conditions: BHI agar, 35-37 °C, 20 to 24 hours, unit assumed
Description: as §1
as §2, with “comparability. Erythromycin A was used for this purpose.” for “comparability.”
as §3

[26] = test system: Streptococcus bovis A-5169; conditions: BHI agar, 35-37 °C, 20 to 24 hours, unit assumed
Description: as §1
as §2, with “comparability. Erythromycin A was used for this purpose.” for “comparability.”
as §3

[27] = test system: Enterobacter aerogenes ATCC 13048; conditions: BHI agar, 35-37 °C, 20 to 24 hours, unit assumed
Description: as §1
as §2, with “comparability. Erythromycin A was used for this purpose.” for “comparability.”
as §3

| SMILES | MIC [1] [µg/mL] | MIC [2] [µg/mL] | MIC [3] [µg/mL] | MIC [4] [µg/mL] | MIC (Escherichia coli DC-2) [µg/mL] | MIC [5] [µg/mL] | MIC [6] [µg/mL] | MIC [7] [µg/mL] | MIC [8] [µg/mL] | MIC (Escherichia coli SS) [µg/mL] | MIC [9] [µg/mL] | MIC [11] [µg/mL] | MIC [12] [µg/mL] | MIC [13] [µg/mL] | MIC [14] | MIC [15] [µg/mL] | MIC (Escherichia coli JUHL) | MIC (Escherichia coli H560) [µg/mL] | MIC [16] [µg/mL] | MIC [17] [µg/mL] | other results |
| --- | --- | --- | --- | --- | --- | --- | --- | --- | --- | --- | --- | --- | --- | --- | --- | --- | --- | --- | --- | --- | --- |
| CC[C@H]1OC(=O)[C@H](C)[C@@H](O[C@H]2C[C@@](C)(OC)[C@@H](O)[C@H](C)O2)[C@H](C)[C@@H](O[C@@H]2O[C@H](C)C[C@H](N(C)C)[C@H]2O)[C@](C)(OCC(O)CO)C[C@@H](C)C(=O)[C@H](C)[C@@H](O)[C@]1(C)O (stereo partly shown) [Example 3, Compound of Formula (X): X is =O, R is 2.3-dihydroxypropyl] | 12.5 | 50 | 0.78 | 1.56 | 50 | 1.56 | 0.2 | > 100 | > 100 | 1.56 | 0.39 | > 100 | 1.56 | 3.1 | >100 | 1.56 | 50 | 25 | > 100 | 1.56 | MIC [10]: 12.5 µg/mL; MIC [18]: 0.1 µg/mL; MIC [19]: > 100; MIC [20]: > 100 µg/mL; MIC [21]: 0.78 µg/mL; MIC [22]: > 100 µg/mL; MIC (Pseudomonas capacia 2961): >100; MIC (Escherichia coli KNK 437): 100 µg/mL; MIC [23]: 0.39 µg/mL; MIC [24]: > 100 µg/mL; MIC (Candida albicans CCH 442): > 100 µg/mL; MIC [25]: > 100 µg/mL; MIC [26]: 0.2 µg/mL; MIC [27]: > 100 µg/mL |
| CC[C@H]1OC(=O)[C@H](C)[C@@H](O[C@H]2C[C@@](C)(OC)[C@@H](O)[C@H](C)O2)[C@H](C)[C@@H](O[C@@H]2O[C@H](C)C[C@H](N(C)C)[C@H]2O)[C@](C)(OCC(O)CN2CCOCC2)C[C@@H](C)C(=O)[C@H](C)[C@@H](O)[C@]1(C)O (stereo partly shown) [Example 6, Comnound of Formula (X): X is =O, R is 2-hydroxy-3-(morpholin-4-yl)propyl] | 25 | 25 | 0.2 | 12.5 | > 100 | 1.56 | 0.05 | > 100 | > 100 | 0.78 | 0.1 | > 100 | 0.78 | 0.78 | > 100 | 1.56 | > 100 | 100 | > 100 | 0.78 | MIC [10]: 6.2 µg/mL; MIC [18]: 0.1 µg/mL; MIC [19]: > 100; MIC [20]: > 100 µg/mL; MIC [21]: 0.78 µg/mL; MIC [22]: > 100 µg/mL; MIC (Pseudomonas capacia 2961): > 100; MIC (Escherichia coli KNK 437): > 100 µg/mL; MIC [23]: 0.39 µg/mL; MIC [24]: > 100 µg/mL; MIC (Candida albicans CCH 442): > 100 µg/mL; MIC [25]: > 100 µg/mL; MIC [27]: > 100 µg/mL |
| CC[C@H]1OC(=O)[C@H](C)[C@@H](O[C@H]2C[C@@](C)(OC)[C@@H](O)[C@H](C)O2)[C@H](C)[C@@H](O[C@@H]2O[C@H](C)C[C@H](N(C)C)[C@H]2O)[C@](C)(OCC(O)Cn2ccnc2)C[C@@H](C)C(=O)[C@H](C)[C@@H](O)[C@]1(C)O (stereo partly shown) [Example 5, Compound of Formula (X): X is =O, R is 2-hydroxy-3-(imidazol-1-yl)propyl] | 12.5 | 12.5 | 1.56 | 1.56 | 50 | 0.78 | 0.05 | > 100 | > 100 | 0.78 | 0.1 | > 100 | 0.78 | 0.78 | 100 | 3.1 | 25 | 50 | 100 | 0.78 | MIC [18]: 0.1 µg/mL; MIC [19]: > 100; MIC [20]: > 100 µg/mL; MIC [21]: 1.56 µg/mL; MIC [22]: > 100 µg/mL; MIC (Pseudomonas capacia 2961): > 100; MIC (Escherichia coli KNK 437): 50 µg/mL; MIC [23]: 0.39 µg/mL; MIC [24]: > 100 µg/mL; MIC (Candida albicans CCH 442): > 100 µg/mL; MIC [25]: > 100 µg/mL; MIC [26]: 0.05 µg/mL; MIC [27]: 100 µg/mL |
